# Key:
# [1] = test system: muscarinic cholinergic receptor; experiment: pharmacological studies, muscarinic cholinergic receptor activity
# [2] = known; cited from earlier work
# clinical subjects = experiment: clinical observation of pupil response; assay type: in vivo, human; conditions: rather than the expected pupilary dilation
# rats = experiment: in vivo observation, overdose in rats; conditions: rats exposed to an overdose
# [3] = detection of radiolabelled compound in saliva; assay type: in vivo
# [4] = test system: people addicted to nicotine; conditions: cited from earlier work
smiles,measurement,setting,value
"Cc1cc2c(s1)Nc1ccccc1N=C2N1CCN(C)CC1 [2-methyl-4-(4-methyl-1-piperazinyl)-10H-thieno[2,3-b][1,5]benzodiazepine]",muscarinic receptor subtype profile,[1]; in vivo animal and clinical observations,complex muscarinic receptor subtype profile
same,muscarinic cholinergic receptor activity,[1]; pharmacological studies,has muscarinic cholinergic receptor activity
same,antipsychotic activity,[2],can provide antipsychotic activity
same,extrapyramidal symptoms,[2],less likely to induce extrapyramidal symptoms
same,pupilary response,clinical subjects,pupilary constriction
same,salivation,rats,significant salivation
same,detection in saliva,[3],can be detected in the saliva
Clc1cccc(Cl)c1N=C1NCCN1 [clonidine],effectiveness versus placebo,[4]; clonidine treatment for six weeks,"more effective than placebo, but only for women"
CNC1(C)C2CCC(C2)C1(C)C (stereo not shown) [mecamylamine],undesirable side effects,[4]; receptor antagonist therapy,other undesirable side effects
same,effect on tobacco consumption,"[4]; receptor antagonist therapy, short term effect",increasing tobacco consumption

# From patent US5696115A, “Method for treating nicotine withdrawal” (Eli Lilly and Company, priority 1995, dated 1997)
